Test results reported in patent publication US8633184B2, “Benzoazepin-oxy-acetic acid derivatives as PPAR-delta agonists used for the increase of HDL-C, lower LDL-C and lower cholesterol” (Janssen Pharmaceutica N.V., priority 2006, dated 2014).
pEC50: −log10 of the molar value. Values joined by “and” are separate entries in the source; they are usually repeats but may differ in a detail not shown here. Equal entries are not always repeated.

What was measured:
Assay type in all cases: cell-based
Settings in all cases: 18-24 hrs
PPARα = molecular target: T1, PPARα (Homo sapiens, UniProt Q07869); assay: Transfection assay, GAL4-PPARα LBD luciferase reporter in HEK293 cells
T1 construct: expressed in transfected cells; host or cells: HEK293
T1 sequence (Q07869 239-466 limits assumed): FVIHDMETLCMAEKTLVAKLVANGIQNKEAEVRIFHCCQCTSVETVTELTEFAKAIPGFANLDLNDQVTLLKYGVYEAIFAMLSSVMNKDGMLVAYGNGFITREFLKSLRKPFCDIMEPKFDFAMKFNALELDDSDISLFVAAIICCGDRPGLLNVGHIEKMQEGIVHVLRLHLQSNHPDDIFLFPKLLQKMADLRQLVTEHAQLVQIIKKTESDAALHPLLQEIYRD
Description: (§1) HEK293 cells were grown in DMEM/F12 medium supplemented with 10% FBS and glutamine (Invitrogen) and incubated in a 5% CO2 incubator at 37° C. The cells were co-transfected using DMRIE-C reagent (Invitrogen) in serum free medium (Opti-MEM, Invitrogen) with two mammalian expression plasmids, one containing the DNA sequence coding for the ligand binding domains of either PPARα, γ or δ fused to the yeast GAL4 DNA binding domain and the other containing the promoter sequence of the yeast GAL4 (UAS) fused to the firefly luciferase cDNA reporter. The next day, the medium was changed to DMEM/F12 medium supplemented with 5% charcoal treated serum (Hyclone) and glutamine. After 6 hrs the cells were trypsinized and seeded at a density of 50,000 cells/well into 96 well plates and incubated overnight as above. The cells were then treated with test compounds or vehicle and incubated for 18-24 hrs as above. Luciferase reporter activity was measured using the Steady-Glo Luciferase Assay Kit from Promega. DMRIE-C Reagent was purchased from GIBCO Cat. No. 10459-014. OPTI-MEM I Reduced Serum Medium was purchased from GIBCO (Cat. No. 31985). Steady-Glo Luciferase Assay Kit was purchased from Promega (Part #E254B).
(§2) A variety of example compounds have been made and tested, with a range of in vitro results. Below, in Table 2, are representative compounds and data; in some cases, where multiple EC50's are shown, multiple measurements were taken. Naturally, different compounds in Formula (I) may have not activities identical to any one compound below.

PPARγ = molecular target: T2, PPARγ (Homo sapiens, UniProt P37231); assay: Transfection assay, GAL4-PPARγ LBD luciferase reporter in HEK293 cells
T2 construct: expressed in transfected cells; host or cells: HEK293
T2 sequence (P37231 238-503 limits assumed): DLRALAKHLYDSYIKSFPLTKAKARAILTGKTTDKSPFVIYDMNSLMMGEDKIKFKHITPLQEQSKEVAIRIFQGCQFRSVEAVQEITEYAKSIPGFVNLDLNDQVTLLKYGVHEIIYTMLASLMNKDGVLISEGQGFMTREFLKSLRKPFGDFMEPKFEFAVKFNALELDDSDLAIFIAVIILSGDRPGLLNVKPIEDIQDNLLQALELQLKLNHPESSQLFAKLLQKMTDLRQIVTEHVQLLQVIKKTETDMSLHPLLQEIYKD
Description: as §1, §2

PPARδ = molecular target: T3, PPARδ (Homo sapiens, UniProt Q03181); assay: Transfection assay, GAL4-PPARδ LBD luciferase reporter in HEK293 cells
T3 construct: expressed in transfected cells; host or cells: HEK293
T3 sequence (Q03181 211-439 limits assumed): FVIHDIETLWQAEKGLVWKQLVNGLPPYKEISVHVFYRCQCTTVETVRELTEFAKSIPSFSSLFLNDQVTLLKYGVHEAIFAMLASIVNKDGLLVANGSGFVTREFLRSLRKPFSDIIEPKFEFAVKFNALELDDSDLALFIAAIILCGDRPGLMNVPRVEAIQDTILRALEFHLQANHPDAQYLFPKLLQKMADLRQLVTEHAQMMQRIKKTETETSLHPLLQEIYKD
Description: as §1, §2

Row | SMILES | pEC50 (PPARα) | pEC50 (PPARγ) | pEC50 (PPARδ)
1 | O=C(O)COc1ccc2c(c1)CCN(CCc1ccc(-c3ccc(C(F)(F)F)cc3)s1)CC2 [compound 22] | < 5.52 | < 5.52 | < 5.52
2 | O=C(O)COc1ccc2c(c1)CCN(Cc1csc(-c3ccc(C(F)(F)F)cc3)n1)CC2 [compound 17] | < 5.52 | < 5.52 | 6.36
3 | Cc1c(-c2ccc(C(F)(F)F)cc2)csc1CN1CCc2ccc(OCC(=O)O)cc2CC1 [compound 15] | < 5.52 | < 5.52 | 6.98
4 | Cc1cc(-c2ccc(C(F)(F)F)cc2)sc1CN1CCc2ccc(OC(C)(C)C(=O)O)cc2CC1 [compound 14] | < 5.52 | < 5.52 | 6.40
5 | O=C(O)COc1ccc2c(c1)CCN(Cc1ccc(-c3ccc(OC(F)(F)F)cc3)s1)CC2 [compound 32] | < 5.52 | < 5.52 | 6.80
6 | Cc1nc(-c2ccc(C(F)(F)F)cc2)oc1CN1CCc2ccc(OC(C)(C)C(=O)O)cc2CC1 [compound 19] | < 5.52 | < 5.52 | 6.64
7 | O=C(O)C1(Oc2ccc3c(c2)CCN(Cc2cnc(-c4ccc(C(F)(F)F)cc4)s2)CC3)CC1 [compound 39] | < 6.00 | < 6.00 | 7.92
8 | CC(c1ccc(-c2ccc(C(F)(F)F)cc2)s1)N1CCc2ccc(OCC(=O)O)cc2CC1 (single isomer, unassigned) [27b] | < 5.52 | < 5.52 | 7.90 and 7.86
9 | CC(c1ccc(-c2ccc(C(F)(F)F)cc2)s1)N1CCc2ccc(OCC(=O)O)cc2CC1 (single isomer, unassigned) [27a] | < 5.52 | < 6.00 | 9.04
10 | Cc1nc(-c2ccc(C(F)(F)F)cc2)sc1CN1CCc2ccc(OCC(=O)O)cc2CC1 [compound 5] | < 5.52 | < 5.52 | 7.29
11 | O=C(O)COc1ccc2c(c1)CCN(Cc1ccc(-c3ccc(Cl)cc3)o1)CC2 [compound 35] | < 5.52 | < 5.52 | 6.77
12 | CC(c1cnc(-c2ccc(C(F)(F)F)cc2)s1)N1CCc2ccc(OCC(=O)O)cc2CC1 (stereo not drawn) [compound 29] | < 5.52 | 6.21 | > 8.52
13 | CC(C)(Oc1ccc2c(c1)CCN(Cc1cc(-c3ccc(C(F)(F)F)cc3)ns1)CC2)C(=O)O [compound 2] | < 5.52 | < 5.52 | 6.79
14 | CC(c1ccc(-c2ccc(C(F)(F)F)cc2)o1)N1CCc2ccc(OCC(=O)O)cc2CC1 (single isomer, unassigned) [28a] | < 5.52 | < 5.52 | 8.74
15 | CC1CN(Cc2ccc(-c3ccc(C(F)(F)F)cc3)o2)CCc2ccc(OCC(=O)O)cc21 (stereo not drawn) [compound 26] | < 5.52 | < 5.52 | 7.80
16 | Cc1nc(-c2ccc(C(F)(F)F)cc2)sc1CN1CCc2ccc(OC(C)(C)C(=O)O)cc2CC1 [compound 6] | < 6.00 | < 5.52 | 6.61
17 | O=C(O)COc1ccc2c(c1)CCN(Cc1cnc(-c3ccc(C(F)(F)F)cc3)s1)CC2 [compound 24] | < 6.00 | < 5.52 | 7.57 and 7.66
18 | O=C(O)COc1ccc2c(c1)CCN(Cc1cc(-c3ccc(C(F)(F)F)cc3)ns1)CC2 [compound 1] | 6.26 and 6.12 | < 5.52 | 7.47 and 7.18
19 | CCC(c1ccc(-c2ccc(C(F)(F)F)cc2)s1)N1CCc2ccc(OCC(=O)O)cc2CC1 (stereo not drawn) [compound 30] | < 5.52 | < 5.52 | 9.05
20 | O=C(O)COc1ccc2c(c1)CCN(Cc1cccc(-c3ccc(C(F)(F)F)cc3)n1)CC2 [compound 43] | < 5.52 | < 5.52 | < 5.52
21 | CC(c1ccc(-c2ccc(C(F)(F)F)cc2)o1)N1CCc2ccc(OCC(=O)O)cc2CC1 (stereo not drawn) [compound 28] | < 5.52 | < 5.52 | > 8.52
